Experimental data as given in patent US20120202756A1, “USE OF PRODRUGS TO AVOID GI MEDIATED ADVERSE EVENTS” (priority 2009, published 2012).
Read-outs that look alike come from different tables or passages of the source.

Columns and labels:
[1] = Stability in USP simulated gastric juice; type: in vitro ADME; details: USP SGF pH 1.1, pepsin […], prodrug 20 μg/mL
Source text: To minimize the direct inhibitory action of this drug on gastric emptying/gut motility—and resultant nausea—the prodrug should not undergo premature chemical or enzymic cleavage back to the parent drug while within the gut lumen.

[2] = tested on: Bacteroides fragilis; assay: MIC, clindamycin prodrugs; type: cell-based
[3] = tested on: Bacteroides thetaiotamicron; assay: MIC, clindamycin prodrugs; type: cell-based
[4] = tested on: Bifidobacterium adolescentis; assay: MIC, clindamycin prodrugs; type: cell-based; details: NCTC 11814
[5] = tested on: Bifidobacterium dentium; assay: MIC, clindamycin prodrugs; type: cell-based; details: NCTC 11816
[6] = tested on: Bifidobacterium longum; assay: MIC, clindamycin prodrugs; type: cell-based; details: NCTC 11818
[7] = tested on: Clostridium perfringens; assay: microbe, parasite or virus in culture; type: cell-based
[8] = tested on: Clostridium sporogenes; assay: MIC, clindamycin prodrugs; type: cell-based; details: ATCC 3584
[9] = tested on: Prevotella melaninogenicus; assay: MIC, clindamycin prodrugs; type: cell-based
[10] = tested on: Propionibacterium acnes; assay: MIC, clindamycin prodrugs; type: cell-based
[11] = tested on: Veillonella atypical; assay: MIC, clindamycin prodrugs; type: cell-based; details: NCTC 11830
[12] = tested on: Veillonella parvula; assay: MIC, clindamycin prodrugs; type: cell-based; details: NCTC 11810
[13] = tested on: Campylobacter coli; assay: MIC, clindamycin prodrugs; type: cell-based
[14] = tested on: Campylobacter jejuni; assay: MIC, clindamycin prodrugs; type: cell-based
[15] = tested on: Helicobacter pylori; assay: MIC, clindamycin prodrugs; type: cell-based
[16] = tested on: Staphylococcusaureus; assay: MIC, clindamycin prodrugs; type: cell-based
[17] = tested on: Staphylococcus epidermidis; assay: MIC, clindamycin prodrugs; type: cell-based
[18] = tested on: Staphylococcus haemolyticus; assay: MIC, clindamycin prodrugs; type: cell-based; details: antibiotic susceptible clinical isolate
[19] = tested on: Streptococcus pneumoniae; assay: MIC, clindamycin prodrugs; type: cell-based
[20] = tested on: Streptococcus pyogenes; assay: MIC, clindamycin prodrugs; type: cell-based
[21] = tested on: Group C Streptococcus; assay: MIC, clindamycin prodrugs; type: cell-based; details: antibiotic-susceptible clinical isolate
[22] = relative bioavailability of clindamycin vs dosing clindamycin itself, male rats, mean
Protocol: Serial tail vein blood samples were subsequently collected via an indwelling cannuala into EDTA tubes containing a stabilising cocktail (including 6 mg/mL NaF) to prevent post collection enzymic hydrolysis of the prodrug.

[23] = tested on: Clostridium bifermentans; details: ATCC 638
[24] = tested on: Fusobacterium necrophorum; details: clinical isolate
[25] = tested on: Peptostreptococcus magnus; details: clinical isolate
[26] = tested on: Peptostreptococcus micros; details: clinical isolate
[27] = tested on: Porphyromonas assacharolyticus; details: clinical isolate
[28] = tested on: Porphyromonas endodontalis; details: clinical isolate
[29] = tested on: Prevotella bivia; details: ATCC 29303
[30] = tested on: Prevotella denticola; details: clinical isolate
[31] = tested on: Prevotella intermedia; details: clinical isolate
[32] = tested on: Prevotella oralis; details: clinical isolate
[33] = tested on: Veillonella spp.; details: clinical isolate
[34] = tested on: Enterococcus faecalis; details: ATCC 29212 antibiotic-susceptible type strain
[35] = tested on: Listeria monocytogenes; details: antibiotic-susceptible clinical isolate
[36] = tested on: Streptococcus agalactiae; details: antibiotic-susceptable clinical isolate
[37] = tested on: Group G Streptococcus; details: antibiotic-susceptible clinical isolate
[38] = tested on: Streptococcus oralis; details: antibiotic-susceptible clinical isolate
[39] = antibiotic-susceptible clinical isolate

With `CCCC1CC(C(=O)NC(C(C)Cl)C2OC(SC)C(OC(=O)CCCC(=O)Nc3ccc(C(=O)O)cc3)C(O)C2O)N(C)C1.O=C(O)C(F)(F)F` (stereo not shown) [Clindamycin glutaryl PABA ester, Clindamycin-2-(glutaryl-PABA) ester trifluoroacetate] the “Simulated gastric juice (1 h, 37° C.) % active drug generated” value [1] was <1%, the Minimum inhibitory concentration ([2]; ATCC 25285) was 64 µg/mL and the Minimum inhibitory concentration ([2]; clinical isolate) was 16 µg/mL. For the same molecule, the Minimum inhibitory concentration ([3]; ATCC 29741) was >64 µg/mL, the Minimum inhibitory concentration ([3]; NCTC 10582) was >64 µg/mL and the Minimum inhibitory concentration [4] was 2 µg/mL. The Minimum inhibitory concentration [5] was 2 µg/mL, the Minimum inhibitory concentration [6] was 2 µg/mL and the Minimum inhibitory concentration ([7]; ATCC 13124) was 8 µg/mL. The Minimum inhibitory concentration [7, 39] was 8 µg/mL, the Minimum inhibitory concentration [8] was >64 µg/mL and the Minimum inhibitory concentration ([9]; clinical isolate (first listed, r37)) was 0.5 µg/mL. It also gave a Minimum inhibitory concentration ([9]; clinical isolate (second listed, r38)) of 1 µg/mL, a Minimum inhibitory concentration [10] of 8 µg/mL and a Minimum inhibitory concentration ([10]; clinical isolate MIC clindamycin 0.5 mg/L) of 8 µg/mL. The Minimum inhibitory concentration [11] was 4 µg/mL, the Minimum inhibitory concentration [12] was 4 µg/mL and the Minimum inhibitory concentration ([13]; ATCC 33559) was “≦0.03 ug/mL”. For the same molecule, the Minimum inhibitory concentration ([13]; clinical isolate) was 0.06 µg/mL, the Minimum inhibitory concentration ([14]; ATCC 33560) was “≦0.03 ug/mL” and the Minimum inhibitory concentration ([14]; clinical isolate) was “≦0.03 ug/mL”. The Minimum inhibitory concentration ([15]; ATCC 43504) was “≦0.03 ug/mL”, the Minimum inhibitory concentration ([15]; clinical isolate (r56)) was “≦0.03 ug/mL” and the Minimum inhibitory concentration ([15]; clinical isolate (r57)) was “≦0.03 ug/mL”. The Minimum inhibitory concentration ([15]; clinical isolate (r100)) was “≦0.03 ug/mL”, the Minimum inhibitory concentration ([15]; clinical isolate (r101)) was “≦0.03 ug/mL” and the Minimum inhibitory concentration ([16]; ATCC 25923 - antibiotic-susceptible type strain) was 4 µg/mL. The Minimum inhibitory concentration ([16]; ATCC 29213 - antibiotic-susceptible type strain) was 4 µg/mL, the Minimum inhibitory concentration ([16]; ATCC 43300 - methicillin-resistant type strain) was >64 µg/mL and the Minimum inhibitory concentration ([17]; antibiotic susceptible clinical isolate) was 4 µg/mL. For the same molecule, the Minimum inhibitory concentration ([17]; methicillin-resistant clinical isolate) was 8 µg/mL, the Minimum inhibitory concentration [18] was 4 µg/mL and the Minimum inhibitory concentration ([19]; ATCC 49619 antibiotic-susceptible type strain) was 2 µg/mL. It also gave a Minimum inhibitory concentration ([19]; penicillin-susceptible clinical isolate) of 1 µg/mL, a Minimum inhibitory concentration ([20]; Macrolide (MLS) resistant clinical isolate) of 4 µg/mL and a Minimum inhibitory concentration [20, 39] of 2 µg/mL. The Minimum inhibitory concentration [21] was 2 µg/mL, the Frel [22] was 51% and the Frel ([22]; listed as Clindamycin glutaryl PABA ethyl ester) was 51%. The Minimum inhibitory concentration [23] was 32 µg/mL, the Minimum inhibitory concentration [24] was 1 µg/mL and the Minimum inhibitory concentration [25] was 64 µg/mL. It also gave a Minimum inhibitory concentration [26] of 8 µg/mL, a Minimum inhibitory concentration [27] of 0.12 µg/mL and a Minimum inhibitory concentration [28] of 0.12 µg/mL. It also gave a Minimum inhibitory concentration [29] of 1 µg/mL, a Minimum inhibitory concentration [30] of 4 µg/mL and a Minimum inhibitory concentration [31] of 0.12 µg/mL. The Minimum inhibitory concentration [32] was “≦0.03 ug/mL”, the Minimum inhibitory concentration [33] was 1 µg/mL and the Minimum inhibitory concentration [34] was >64 µg/mL. For the same molecule, the Minimum inhibitory concentration [35] was 32 µg/mL, the Minimum inhibitory concentration [36] was 2 µg/mL and the Minimum inhibitory concentration [37] was 2 µg/mL. The Minimum inhibitory concentration [38] was 0.5 µg/mL.
